Test results published in ChEMBL document CHEMBL1201862, “PubChem BioAssay data set” (2004).
Active and inactive are the calls of the source.

Assays:
[1] = HEK-293T viability loss after treatment – luminescence, T-cell screen hits, cytotoxicity control for TCR NF-kB inhibitor project, dose response (AID 489026); format: functional, cell-based;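 further: cells exposed to compound about 14 hours before the viability readout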
[2] = target: NACHT, LRR and PYD domains-containing protein 3 (Homo sapiens, UniProt Q96P20); assay: NALP3 inhibitors in yeast, dose response, luminescent (AID 488799); format: functional
[3] = target: Neurotensin receptor type 1 (Homo sapiens, UniProt P30989); format: functional;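 further: Image-based confirmatory dose-response assay measuring agonist activity at NTR1; NTR1-expressing U2OS osteosarcoma cells imaged for beta-arrestin GFP spot formation; agonist potency where compounds increase beta-arrestin recruitment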
[4] = target: T1, Calpain-2 catalytic subunit (Sus scrofa, UniProt P43367); assay: m-calpain protease blockers, concentration series – biochemical, fluorogenic peptide substrate, dose response (AID 1420); format: functional
T1 sequence (P43367 whole entry): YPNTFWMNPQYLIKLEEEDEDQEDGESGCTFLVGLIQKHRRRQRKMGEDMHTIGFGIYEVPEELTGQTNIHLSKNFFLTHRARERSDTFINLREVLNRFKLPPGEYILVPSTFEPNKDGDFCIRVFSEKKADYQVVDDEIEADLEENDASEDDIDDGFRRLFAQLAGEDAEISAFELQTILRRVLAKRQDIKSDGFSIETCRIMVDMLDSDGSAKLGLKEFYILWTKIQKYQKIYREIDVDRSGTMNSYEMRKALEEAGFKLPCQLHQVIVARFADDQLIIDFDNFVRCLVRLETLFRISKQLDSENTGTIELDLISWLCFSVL

[5] = NIH3T3 cell viability loss – ATP luminescence, mouse fibroblasts, counter-screen, dose response (AID 2010); format: functional, cell-based;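 further: cells exposed to compound for about 90 hours before reading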
[6] = Trypanosoma cruzi growth suppression in host cells – NIH3T3 host cells, beta-gal luminescence, confirmation (AID 2044); format: functional, cell-based;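 further: intracellular parasites grown in NIH/3T3 mouse fibroblasts as host cells; luminescent beta-galactosidase reporter signal from transgenic T. cruzi replicating inside host cells; inhibitors lower the luminescence signal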
Vero [7] = assay: Vero cell viability after compound exposure – synthesized analogs, set II, cytotoxicity control for West Nile virus antiviral project, SAR follow-up (AID 2402); format: functional; settings: Chlorocebus sabaeus
Vero [8] = assay: Vero 76 cell viability after compound exposure – Vero 76 cells, synthesized analogs, cytotoxicity control for West Nile virus antiviral project, SAR follow-up (AID 2414); format: functional; settings: Chlorocebus sabaeus
Vero [9] = assay: antiviral protection of cells from WNV – synthesized analogs, SAR follow-up (AID 2238); format: functional, cell-based; settings: Chlorocebus sabaeus
Vero [10] = assay: host cell viability loss, Vero E6 – synthesized analogs, cytotoxicity control for West Nile virus antiviral project, SAR follow-up (AID 2244); format: functional; settings: Chlorocebus sabaeus
[11] = target: Low molecular weight phosphotyrosine protein phosphatase (Homo sapiens, UniProt P24666); format: functional; settings: read-out: IC50_Mean;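 further: Dose-response confirmation assay measuring inhibition of LMPTP enzyme activity by fluorescence intensity read-out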
[12] = target: T2, Dual specificity protein phosphatase 3 (Homo sapiens, UniProt P51452); assay: Dose Response Confirmation of compounds that inhibit VHR1 in Fluorescent Assay. [Related pubchem assays (depositor defined):AID1661, AID1878]; format: functional
[13] = target: T3, Tyrosine-protein phosphatase non-receptor type 7 (Homo sapiens, UniProt P35236); assay: Dose Response confirmation of compounds that inhibit HePTP. [Related pubchem assays (depositor defined):AID1059, AID1661, AID2085]; format: functional
T3 sequence (P35236 whole entry): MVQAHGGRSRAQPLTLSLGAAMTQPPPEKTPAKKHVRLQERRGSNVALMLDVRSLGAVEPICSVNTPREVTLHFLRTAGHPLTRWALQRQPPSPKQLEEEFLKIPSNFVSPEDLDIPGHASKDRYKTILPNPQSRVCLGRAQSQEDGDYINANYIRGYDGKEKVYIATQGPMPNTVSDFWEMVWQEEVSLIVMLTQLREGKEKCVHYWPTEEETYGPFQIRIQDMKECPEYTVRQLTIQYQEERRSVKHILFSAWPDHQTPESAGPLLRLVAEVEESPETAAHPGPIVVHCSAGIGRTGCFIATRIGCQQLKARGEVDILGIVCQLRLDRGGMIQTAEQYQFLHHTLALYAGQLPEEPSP

[14] = target: Voltage-dependent T-type calcium channel subunit alpha-1H (Homo sapiens, UniProt O95180); assay: human CACNA1H calcium influx blockade – cell-based, synthetic library set 1, calcium flux (AID 493022); format: functional
[15] = target: T4, Kappa-type opioid receptor (Homo sapiens, UniProt P41145); assay: SAR analysis of Antagonists of the Kappa Opioid Receptor (KOR) using an Image-Based Assay - Set 4. [Related pubchem assays (depositor defined):AID1777, AID1785]; format: functional
[16] = target: T4, Kappa-type opioid receptor; assay: SAR analysis of small molecule antagonists of the kappa opioid receptor via a luminescent beta-arrestin assay - Set 6. [Related pubchem assays (depositor defined):AID1777, AID1778, AID1785, AID1786, AID1966, AID2133, AID2136, AID2285]; format: functional
[17] = target: Delta-type opioid receptor (Homo sapiens, UniProt P41143); assay: SAR Analysis of Antagonists of the DOR Receptor using an Image-Based Assay - Set 3. [Related pubchem assays (depositor defined):AID1777, AID1785]; format: functional;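 further: U2OS cells expressing DOR1 and beta-arrestin GFP stimulated with 100 nM SNC80; imaging of GFP-tagged beta-arrestin moving into spots after receptor activation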
Mu-type opioid receptor = Mu-type opioid receptor (Homo sapiens, UniProt P35372); assay: SAR Analysis of Antagonists of the MOR Receptor using an Image-Based Assay - Set 3. [Related pubchem assays (depositor defined):AID1777, AID1785, AID1786, AID1966, AID2133, AID2136, AID2284, AID2285, AID2420]; format: functional
[18] = target: T4, Kappa-type opioid receptor; assay: SAR analysis of small molecule antagonists of the kappa opioid receptor via a luminescent beta-arrestin assay - Set 4. [Related pubchem assays (depositor defined):AID1777, AID1778, AID1785, AID1786, AID1966, AID2133, AID2136, AID2285]; format: functional
[19] = target: T2, Dual specificity protein phosphatase 3; assay: SAR VHR1 Fluorescent Assay for In Vitro dose response studies Set 2. [Related pubchem assays (depositor defined):AID1654, AID1661, AID1878]; format: functional
[20] = target: T3, Tyrosine-protein phosphatase non-receptor type 7; assay: SAR analysis of chemical inhibitors of HePTP using a Fluorescent assay - Set 2. [Related pubchem assays (depositor defined):AID1059, AID1077, AID1661, AID2085, AID521]; format: functional
[21] = protection from phage-mediated lysis, alamar blue read-out – E. coli UTI89, K1F phage, bacterial capsule biogenesis inhibitors (AID 488966); format: functional
[22] = target: T2, Dual specificity protein phosphatase 3; assay: SAR VHR1 Fluorescent Assay for In Vitro dose response studies. [Related pubchem assays (depositor defined):AID1654, AID1661, AID1878, AID1992, AID2004, AID2070, AID2085]; format: functional
[23] = target: T3, Tyrosine-protein phosphatase non-receptor type 7; assay: redox-active compounds inhibiting HePTP phosphatase – biochemical, fluorescence, mechanism study (AID 2068); format: functional
[24] = target: T3, Tyrosine-protein phosphatase non-receptor type 7; assay: inhibition of hematopoietic tyrosine phosphatase HePTP – biochemical, set 2, SAR follow-up (AID 449736); format: functional
[25] = target: T5, Tyrosine-protein phosphatase non-receptor type 12 (Homo sapiens, UniProt Q05209); assay: SAR Selectivity Analysis of small molecule inhibitors of PEST using pCAP in a fluorescence assay. [Related pubchem assays (depositor defined):AID1779, AID1784, AID2135]; format: functional
T5 sequence (Q05209 whole entry): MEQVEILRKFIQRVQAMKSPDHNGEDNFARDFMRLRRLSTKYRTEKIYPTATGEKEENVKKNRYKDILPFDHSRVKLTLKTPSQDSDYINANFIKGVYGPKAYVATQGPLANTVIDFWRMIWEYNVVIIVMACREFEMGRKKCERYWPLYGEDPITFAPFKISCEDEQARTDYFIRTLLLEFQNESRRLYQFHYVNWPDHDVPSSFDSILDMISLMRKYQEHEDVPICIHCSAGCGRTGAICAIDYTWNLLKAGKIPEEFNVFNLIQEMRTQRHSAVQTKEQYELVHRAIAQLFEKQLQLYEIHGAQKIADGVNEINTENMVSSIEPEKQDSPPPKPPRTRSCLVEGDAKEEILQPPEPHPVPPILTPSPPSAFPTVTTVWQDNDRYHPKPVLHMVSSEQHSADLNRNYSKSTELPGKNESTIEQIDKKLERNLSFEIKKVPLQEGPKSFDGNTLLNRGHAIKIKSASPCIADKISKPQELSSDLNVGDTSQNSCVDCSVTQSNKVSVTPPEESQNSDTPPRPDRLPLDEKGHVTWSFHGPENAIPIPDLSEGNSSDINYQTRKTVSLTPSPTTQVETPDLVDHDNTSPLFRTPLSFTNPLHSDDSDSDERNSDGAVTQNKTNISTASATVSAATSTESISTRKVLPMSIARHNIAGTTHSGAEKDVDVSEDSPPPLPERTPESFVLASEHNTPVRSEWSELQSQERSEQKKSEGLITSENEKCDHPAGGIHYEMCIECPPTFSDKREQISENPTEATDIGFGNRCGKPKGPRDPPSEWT

[26] = target: T6, Dual specificity protein phosphatase 6 (Rattus norvegicus, UniProt Q64346); format: functional;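 further: confirmatory in vitro dose-response testing of MKP-3 inhibition; recombinant His-tagged MKP-3 made in E. coli BL21 with OMFP substrate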
T6 sequence (Q64346 whole entry): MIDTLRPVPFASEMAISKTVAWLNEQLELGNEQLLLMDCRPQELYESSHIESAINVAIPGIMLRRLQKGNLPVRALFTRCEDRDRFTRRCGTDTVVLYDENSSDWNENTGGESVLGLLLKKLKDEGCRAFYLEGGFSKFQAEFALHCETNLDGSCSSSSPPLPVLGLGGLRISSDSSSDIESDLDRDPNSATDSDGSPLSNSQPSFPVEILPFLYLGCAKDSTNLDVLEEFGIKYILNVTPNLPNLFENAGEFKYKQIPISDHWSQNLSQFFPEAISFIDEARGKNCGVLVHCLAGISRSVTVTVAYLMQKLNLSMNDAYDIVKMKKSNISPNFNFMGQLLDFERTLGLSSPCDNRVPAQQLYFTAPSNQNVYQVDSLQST

[27] = target: T7, Tyrosine-protein phosphatase non-receptor type 22 (Homo sapiens, UniProt Q9Y2R2); assay: SAR LYP1 Fluorescent Assay using OMFP substrate for In Vitro dose response studies - Set 3. [Related pubchem assays (depositor defined):AID1779, AID1784, AID2140, AID2686]; format: functional
T7 sequence (Q9Y2R2 whole entry): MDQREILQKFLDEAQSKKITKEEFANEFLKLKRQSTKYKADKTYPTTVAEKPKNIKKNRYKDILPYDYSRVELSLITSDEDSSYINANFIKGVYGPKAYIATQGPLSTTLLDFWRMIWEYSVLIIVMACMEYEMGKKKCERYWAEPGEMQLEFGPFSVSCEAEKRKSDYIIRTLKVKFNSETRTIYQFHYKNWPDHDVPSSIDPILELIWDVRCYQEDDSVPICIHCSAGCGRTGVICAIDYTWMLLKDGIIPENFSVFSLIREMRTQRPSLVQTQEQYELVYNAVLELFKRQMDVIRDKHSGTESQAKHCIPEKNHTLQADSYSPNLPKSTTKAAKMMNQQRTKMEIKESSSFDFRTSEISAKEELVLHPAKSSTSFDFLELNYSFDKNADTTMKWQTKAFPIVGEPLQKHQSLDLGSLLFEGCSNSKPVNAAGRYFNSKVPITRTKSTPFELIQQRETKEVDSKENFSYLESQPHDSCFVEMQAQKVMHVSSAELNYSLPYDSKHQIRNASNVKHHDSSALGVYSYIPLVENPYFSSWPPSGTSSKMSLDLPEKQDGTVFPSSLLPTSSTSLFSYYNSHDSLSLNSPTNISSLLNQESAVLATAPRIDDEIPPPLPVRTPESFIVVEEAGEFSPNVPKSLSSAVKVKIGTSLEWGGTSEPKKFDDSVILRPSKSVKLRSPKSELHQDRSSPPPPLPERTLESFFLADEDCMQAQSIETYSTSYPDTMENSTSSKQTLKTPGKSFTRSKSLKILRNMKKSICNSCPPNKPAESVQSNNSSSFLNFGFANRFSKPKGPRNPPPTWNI

[28] = target: T2, Dual specificity protein phosphatase 3; assay: MOA VHR1 Fluorescent secondary assay for identification of redox-state modulating compounds. [Related pubchem assays (depositor defined):AID1654, AID1661, AID1878, AID1957]
[29] = target: Signal transducer and activator of transcription 3 (Homo sapiens, UniProt P40763); assay: STAT3 activation with BCL3 mRNA and toxicity – cell-based, […], BCL3 qPCR, cytotoxicity, late-stage follow-up, panel member STAT3 Activation (AID 2049)
[30] = target: Cystic fibrosis transmembrane conductance regulator/Golgi-associated PDZ and coiled-coil motif-containing protein (Homo sapiens, UniProt P13569+Q9HD26); assay: potency against CAL PDZ-peptide interaction – biochemical, fluorescence polarization, Cerulean-tagged CAL PDZ, cherry-picks, dose response (AID 504773)

T4 sequence (P41145 whole entry): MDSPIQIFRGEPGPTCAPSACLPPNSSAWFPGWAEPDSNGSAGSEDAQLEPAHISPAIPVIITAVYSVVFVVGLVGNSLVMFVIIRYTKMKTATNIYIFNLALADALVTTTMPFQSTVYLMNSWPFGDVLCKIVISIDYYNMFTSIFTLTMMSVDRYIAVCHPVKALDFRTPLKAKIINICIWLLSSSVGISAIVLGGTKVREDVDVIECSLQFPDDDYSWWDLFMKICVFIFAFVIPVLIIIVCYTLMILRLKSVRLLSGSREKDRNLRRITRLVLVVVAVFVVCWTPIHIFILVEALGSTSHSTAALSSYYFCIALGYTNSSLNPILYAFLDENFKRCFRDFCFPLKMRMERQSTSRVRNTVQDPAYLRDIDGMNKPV
T2 sequence (P51452 whole entry): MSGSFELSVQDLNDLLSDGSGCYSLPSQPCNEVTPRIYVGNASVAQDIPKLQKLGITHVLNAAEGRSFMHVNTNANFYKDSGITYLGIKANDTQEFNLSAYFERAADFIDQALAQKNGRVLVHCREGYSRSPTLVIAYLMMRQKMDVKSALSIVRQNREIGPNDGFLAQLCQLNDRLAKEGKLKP
Sequence of NACHT, LRR and PYD domains-containing protein 3 (Q96P20 whole entry, the tested form may be a part): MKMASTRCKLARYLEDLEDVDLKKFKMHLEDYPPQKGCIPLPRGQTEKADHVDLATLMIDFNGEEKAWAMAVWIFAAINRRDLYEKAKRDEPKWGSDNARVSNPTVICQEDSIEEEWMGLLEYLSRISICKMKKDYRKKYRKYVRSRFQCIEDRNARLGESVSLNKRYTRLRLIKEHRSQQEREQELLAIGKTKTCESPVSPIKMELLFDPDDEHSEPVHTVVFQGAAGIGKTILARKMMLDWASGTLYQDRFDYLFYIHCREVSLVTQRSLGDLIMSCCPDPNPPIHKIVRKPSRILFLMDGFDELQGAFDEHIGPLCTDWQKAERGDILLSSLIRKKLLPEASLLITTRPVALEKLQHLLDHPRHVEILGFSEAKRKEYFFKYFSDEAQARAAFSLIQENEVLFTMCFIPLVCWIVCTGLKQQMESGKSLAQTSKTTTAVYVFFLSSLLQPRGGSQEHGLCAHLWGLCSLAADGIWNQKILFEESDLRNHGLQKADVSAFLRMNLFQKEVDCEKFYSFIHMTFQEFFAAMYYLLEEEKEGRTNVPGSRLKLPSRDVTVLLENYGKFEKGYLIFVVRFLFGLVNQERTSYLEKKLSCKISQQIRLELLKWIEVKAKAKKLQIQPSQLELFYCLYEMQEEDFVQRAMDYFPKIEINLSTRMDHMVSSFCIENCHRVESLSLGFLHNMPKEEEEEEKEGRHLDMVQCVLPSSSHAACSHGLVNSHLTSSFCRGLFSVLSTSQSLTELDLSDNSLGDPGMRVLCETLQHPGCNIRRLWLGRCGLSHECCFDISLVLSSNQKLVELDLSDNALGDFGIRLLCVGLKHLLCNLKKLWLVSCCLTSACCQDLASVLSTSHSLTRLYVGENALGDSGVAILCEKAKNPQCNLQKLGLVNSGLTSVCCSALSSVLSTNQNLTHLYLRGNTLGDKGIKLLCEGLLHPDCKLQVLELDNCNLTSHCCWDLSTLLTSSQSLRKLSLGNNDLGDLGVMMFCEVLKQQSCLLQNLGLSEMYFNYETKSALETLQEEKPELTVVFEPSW
Sequence of Mu-type opioid receptor (P35372 whole entry): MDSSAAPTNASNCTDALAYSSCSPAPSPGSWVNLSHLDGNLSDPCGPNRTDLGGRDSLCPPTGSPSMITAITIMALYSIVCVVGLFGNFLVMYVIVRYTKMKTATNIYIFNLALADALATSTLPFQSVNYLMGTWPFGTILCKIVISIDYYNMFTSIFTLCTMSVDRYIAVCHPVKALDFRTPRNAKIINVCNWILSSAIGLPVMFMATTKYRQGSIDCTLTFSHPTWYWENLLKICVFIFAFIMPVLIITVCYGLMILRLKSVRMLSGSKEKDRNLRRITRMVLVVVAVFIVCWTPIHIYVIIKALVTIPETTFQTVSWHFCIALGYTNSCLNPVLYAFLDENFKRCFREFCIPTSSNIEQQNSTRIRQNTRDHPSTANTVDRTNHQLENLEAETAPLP
Sequence of Low molecular weight phosphotyrosine protein phosphatase (P24666 whole entry): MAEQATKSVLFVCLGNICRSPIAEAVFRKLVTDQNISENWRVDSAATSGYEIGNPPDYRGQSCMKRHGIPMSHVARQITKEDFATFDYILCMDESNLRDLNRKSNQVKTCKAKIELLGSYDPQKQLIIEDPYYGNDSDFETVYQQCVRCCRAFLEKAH
Sequence of Delta-type opioid receptor (P41143 whole entry): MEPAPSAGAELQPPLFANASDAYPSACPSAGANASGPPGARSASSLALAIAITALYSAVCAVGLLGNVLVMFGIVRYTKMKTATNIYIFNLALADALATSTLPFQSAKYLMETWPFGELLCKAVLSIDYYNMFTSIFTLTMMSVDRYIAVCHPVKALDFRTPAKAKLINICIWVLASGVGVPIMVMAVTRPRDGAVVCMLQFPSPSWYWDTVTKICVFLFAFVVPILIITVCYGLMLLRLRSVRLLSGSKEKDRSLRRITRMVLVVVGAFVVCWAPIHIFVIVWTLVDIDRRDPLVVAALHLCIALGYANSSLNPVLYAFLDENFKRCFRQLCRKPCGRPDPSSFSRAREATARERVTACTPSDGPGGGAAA
Sequence of Voltage-dependent T-type calcium channel subunit alpha-1H (O95180 whole entry): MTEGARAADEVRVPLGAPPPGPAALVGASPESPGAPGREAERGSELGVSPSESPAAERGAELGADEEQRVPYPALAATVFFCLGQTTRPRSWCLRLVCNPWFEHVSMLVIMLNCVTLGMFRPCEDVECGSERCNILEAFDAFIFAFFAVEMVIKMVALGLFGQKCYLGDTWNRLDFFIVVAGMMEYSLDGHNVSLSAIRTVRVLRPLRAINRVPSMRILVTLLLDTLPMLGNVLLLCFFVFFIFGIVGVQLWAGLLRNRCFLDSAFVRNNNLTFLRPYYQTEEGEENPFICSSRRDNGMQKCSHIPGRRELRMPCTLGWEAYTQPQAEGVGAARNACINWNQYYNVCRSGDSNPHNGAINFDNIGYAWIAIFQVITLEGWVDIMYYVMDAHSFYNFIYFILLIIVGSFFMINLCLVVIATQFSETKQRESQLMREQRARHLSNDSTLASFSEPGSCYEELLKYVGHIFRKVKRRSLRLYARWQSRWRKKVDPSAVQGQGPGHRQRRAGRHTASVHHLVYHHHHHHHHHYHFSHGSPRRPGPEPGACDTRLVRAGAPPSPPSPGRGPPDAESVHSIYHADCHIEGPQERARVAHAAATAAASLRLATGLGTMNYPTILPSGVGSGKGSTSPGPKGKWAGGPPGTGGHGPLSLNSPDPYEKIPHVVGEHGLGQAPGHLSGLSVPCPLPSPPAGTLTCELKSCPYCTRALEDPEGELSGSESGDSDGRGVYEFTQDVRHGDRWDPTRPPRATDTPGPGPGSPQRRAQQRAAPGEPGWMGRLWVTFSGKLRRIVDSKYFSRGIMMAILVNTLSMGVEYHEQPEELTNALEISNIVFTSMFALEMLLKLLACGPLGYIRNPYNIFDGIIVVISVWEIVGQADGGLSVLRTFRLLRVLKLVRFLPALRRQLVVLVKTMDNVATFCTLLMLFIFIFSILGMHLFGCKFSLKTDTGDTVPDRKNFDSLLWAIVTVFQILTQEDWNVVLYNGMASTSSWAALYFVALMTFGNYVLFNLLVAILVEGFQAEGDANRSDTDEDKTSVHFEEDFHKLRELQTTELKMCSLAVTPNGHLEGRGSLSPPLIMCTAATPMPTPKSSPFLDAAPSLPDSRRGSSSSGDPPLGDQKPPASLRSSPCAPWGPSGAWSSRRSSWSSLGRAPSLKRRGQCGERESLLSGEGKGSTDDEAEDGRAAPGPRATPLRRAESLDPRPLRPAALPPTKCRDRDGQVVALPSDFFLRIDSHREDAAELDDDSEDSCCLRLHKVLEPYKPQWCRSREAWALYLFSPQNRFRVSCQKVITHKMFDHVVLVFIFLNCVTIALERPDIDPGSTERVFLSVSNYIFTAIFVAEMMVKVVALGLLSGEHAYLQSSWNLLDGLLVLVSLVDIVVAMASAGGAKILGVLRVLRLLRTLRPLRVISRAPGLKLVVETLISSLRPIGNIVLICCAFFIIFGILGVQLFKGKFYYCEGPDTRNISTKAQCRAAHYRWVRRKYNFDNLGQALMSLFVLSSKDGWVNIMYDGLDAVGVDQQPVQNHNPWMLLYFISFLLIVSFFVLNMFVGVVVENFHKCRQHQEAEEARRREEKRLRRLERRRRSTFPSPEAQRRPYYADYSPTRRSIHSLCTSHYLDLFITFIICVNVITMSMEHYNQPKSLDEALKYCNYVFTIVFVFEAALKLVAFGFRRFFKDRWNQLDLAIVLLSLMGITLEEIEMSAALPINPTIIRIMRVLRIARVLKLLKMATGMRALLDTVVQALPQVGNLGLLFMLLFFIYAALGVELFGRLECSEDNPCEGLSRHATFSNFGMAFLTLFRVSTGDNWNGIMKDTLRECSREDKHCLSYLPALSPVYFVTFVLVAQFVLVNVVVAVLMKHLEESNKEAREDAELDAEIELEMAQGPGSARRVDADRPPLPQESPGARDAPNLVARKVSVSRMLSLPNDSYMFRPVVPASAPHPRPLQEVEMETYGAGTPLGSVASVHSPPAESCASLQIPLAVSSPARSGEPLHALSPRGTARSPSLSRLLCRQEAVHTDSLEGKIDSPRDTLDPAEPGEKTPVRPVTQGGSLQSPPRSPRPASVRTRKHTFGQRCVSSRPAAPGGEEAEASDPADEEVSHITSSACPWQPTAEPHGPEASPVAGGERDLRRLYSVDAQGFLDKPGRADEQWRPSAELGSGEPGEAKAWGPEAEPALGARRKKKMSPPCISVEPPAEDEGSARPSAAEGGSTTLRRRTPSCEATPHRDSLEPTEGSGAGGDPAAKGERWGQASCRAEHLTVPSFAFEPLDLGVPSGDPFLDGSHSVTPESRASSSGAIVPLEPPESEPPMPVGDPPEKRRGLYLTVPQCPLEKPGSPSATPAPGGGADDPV

CCCCCCCCn1c2c(c(=N)c3ccccc31)CCC2
IC50 [1]: 59.4 µM (inactive)
IC50 [2]: 11.9 µM (active)
EC50 [3]: 17.7 µM (active)
EC50 (cells): 0.014 µM (active)
IC50 [4]: 7.78 µM (not active)
EC50 [5]: 8.28 µM (active)
EC50 [6]: < 0.1 µM (active)

O=C(CSc1nc2ccccc2c(=O)n1-c1ccc(F)c(Cl)c1)Nc1ccc2c(c1)CCC2
CC50 (Vero [7]): > 100 µM (active)
CC50 (Vero [8]): > 66.6 µM (active)
IC50 (Vero [9]): 19.3 µM (active)
CC50 (Vero [10]): > 40 µM (active)

O=C(CSc1ccc2ccccc2n1)Nc1nsc(-c2ccc(Cl)cc2)n1
IC50 [11]: 11.7 µM (active)
IC50 [12]: 6.74 µM (active)
IC50 [13]: 0.931 µM (active)

O=C(COc1ccc(F)cc1Cl)Nc1nnc(-c2ccc(F)cc2)o1
EC50 [14]: 1.9 µM (active)

Cc1ccc(S(=O)(=O)NCc2ccc(C(=O)NCCCN3CCN(c4ccccc4)CC3)cc2)cc1
IC50 [15]: > 32 µM (inactive)
IC50 [16]: > 20 µM (inactive)
IC50 [17]: > 32 µM (inactive)
IC50 (Mu-type opioid receptor): 0.469 µM (active)
IC50 [18]: > 20 µM (inactive)

COc1cc(C(=S)NCc2ccc(C(F)(F)F)cc2)ccc1O
IC50 [19]: 86.9 µM (active)
IC50 [20]: > 100 µM (inactive)

OC(CNc1ccnc2cc(Cl)ccc12)CNC1CCCCC1 (stereo not drawn)
IC50 [21]: > 150 µM (active)

CCOC(=O)C1=C(C)N=c2s/c(=C/c3cc(Cl)c(OCC(=O)O)c(OC)c3)c(=O)n2C1c1ccccc1Cl (stereo not drawn)
IC50 [22]: 15.1 µM (active)
IC50 [23]: 1.65 µM (active)
IC50 [24]: 1.72 µM (active)
IC50 [25]: 7.63 µM (active)
IC50 [19]: 41.1 µM (active)
IC50 [26]: 39.5 µM (active)
IC50 [27]: 30.5 µM (active)
IC50 [28]: 3.07 µM (active)

O=C(Nc1ccccc1Cl)c1cc(C2CC2)on1
EC50 [29]: 6.08 µM (active)

OC(c1ccccc1)(c1ccccc1)c1nccc2ccccc12
AC50 [30]: 44.9 µM (active)
